These results are taken from patent publication US8163724B2, “Glucocorticosteroids, processes for their preparation, pharmaceutical compositions containing them and their use in therapy” (AstraZeneca AB, priority 2007, dated 2012).

One may read the IC50 as the concentration at which inhibition is half-maximal.

For the assay, the target named is T1, recombinant human GR (Homo sapiens, UniProt P04150).
T1 construct: purchased Panvera/Invitrogen P2812 (kit P2893)
T1 sequence (P04150 1-777): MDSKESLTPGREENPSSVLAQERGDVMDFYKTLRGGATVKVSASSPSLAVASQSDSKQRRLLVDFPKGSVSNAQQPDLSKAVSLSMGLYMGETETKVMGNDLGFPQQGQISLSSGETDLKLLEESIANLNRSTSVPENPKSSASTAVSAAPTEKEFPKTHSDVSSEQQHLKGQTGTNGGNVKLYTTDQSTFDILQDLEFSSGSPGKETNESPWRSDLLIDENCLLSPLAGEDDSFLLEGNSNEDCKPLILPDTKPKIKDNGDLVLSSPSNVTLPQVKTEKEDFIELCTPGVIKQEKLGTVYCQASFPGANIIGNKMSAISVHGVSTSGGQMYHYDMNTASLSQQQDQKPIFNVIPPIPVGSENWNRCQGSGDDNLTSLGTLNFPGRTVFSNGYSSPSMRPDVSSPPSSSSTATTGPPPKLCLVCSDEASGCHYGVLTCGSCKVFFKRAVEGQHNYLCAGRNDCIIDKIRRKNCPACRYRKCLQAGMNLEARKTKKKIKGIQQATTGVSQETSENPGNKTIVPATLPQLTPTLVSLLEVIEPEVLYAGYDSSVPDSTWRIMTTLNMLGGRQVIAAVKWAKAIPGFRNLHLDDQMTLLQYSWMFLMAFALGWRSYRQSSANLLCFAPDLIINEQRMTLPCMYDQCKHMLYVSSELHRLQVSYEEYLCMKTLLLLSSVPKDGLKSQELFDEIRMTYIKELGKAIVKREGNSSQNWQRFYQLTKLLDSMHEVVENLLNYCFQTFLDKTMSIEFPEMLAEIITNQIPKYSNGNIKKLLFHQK
Description: Human Glucocorticoid Receptor (GR) Assay (fluorescence polarization, Panvera/Invitrogen kit). It counts as binding. Conditions: fluorescence polarization; GS Red tracer; 2 hours at room temperature; 100% control 10 μM Dexamethasone; read-out: Inhibition of GR binding, IC50. The method, boiled down: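 Fluorescence polarization competition with recombinant GR and GS Red fluorescent ligand plus stabilizing peptide and DTT in potassium phosphate/sodium molybdate/EDTA buffer with DMSO. Incubated 2 hours at room temperature in the dark; 0% control DMSO, 100% control 10 μM dexamethasone.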
Background: Polarisation of emitted light reports the rotation of a fluorescent probe.
Regarding `COCC(=O)O[C@]1(C(=O)SCC#N)CC[C@H]2[C@@H]3C[C@H](C)C4=Cc5c(cnn5-c5ccc(F)cc5)C[C@]4(C)[C@H]3[C@@H](O)C[C@@]21C` [Example 215, (1R,3aS,3bS,5S,10aR,10bS,11S,12aS)-1-{[(Cyanomethyl)sulfanyl]carbonyl}-7-(4-fluorophenyl)-11-hydroxy-5,10a,12a-trimethyl-1,2,3,3a,3b,4,5,7,10,10a,10b,11,12,12a-tetradecahydrocyclopenta[5,6]naphtho[1,2-f]indazol-1-yl methoxyacetate], the 50% inhibitory concentration (IC50) came to 51 nM.
Then `COCC(=O)O[C@]1(C(=O)SCF)CC[C@H]2[C@@H]3C[C@H](C)C4=Cc5c(cnn5-c5ccc(F)cc5)C[C@]4(C)[C@H]3[C@@H](O)C[C@@]21C` [Example 216, (1R,3aS,3bS,5S,10aR,10bS,11S,12aS)-1-{[(Fluoromethyl)sulfanyl]carbonyl}-7-(4-fluorophenyl)-11-hydroxy-5,10a,12a-trimethyl-1,2,3,3a,3b,4,5,7,10,10a,10b,11,12,12a-tetradecahydrocyclopenta[5,6]naphtho[1,2]-indazol-1-yl methoxyacetate], with 8.8 nM; and “(1R,3aS,3bS,10aR,10bS,11S,12aS)-1-{[(Cyanomethyl)sulfanyl]carbonyl}-7-(4-fluorophenyl)-11-hydroxy-10a,12a-dimethyl-1,2,3,3a,3b,4,5,7,10,10a,10b,11,12,12a-tetradecahydrocyclopenta[5,6]naphtho[1,2]-indazol-1-yl 2-methyltetrahydrofuran-2-carboxylate [Example 132]”, with 4 nM.
